Source: patent publication US20110117154A1, “USE OF RIFALAZIL TO TREAT COLONIC DISORDERS” (ACTIVBIOTICS PHARMA, LLC, priority 2008, published 2011)

Tested on: C. difficile
Assay: CDAD treatment in hamsters infected with C. difficile
Type: in vivo
Conditions: for survival of hamsters infected with C. difficile: treated at the time of infection
Description: Optimal dosages and formulations of Rifalazil alone, or in combination with a second drug compound, can be determined using standard animal models known in the art. One example of an animal model for C. difficile associated disease is the Golden Syrian hamster. To determine the optimal dosage regimen of Rifalazil, Golden Syrian hamsters are injected subcutaneously with clindamycin phosphate (10 mg/kg) followed, 24 hours later, by oral gavage with 10^5 colony forming units (CFU) of C. difficile. Antibiotic treatment is then administered orally, either simultaneously or 24 hours after C. difficile administration Animals are monitored for survival, weight variations, identification of C. difficile toxins in cecal content, and histologic damage to ceca as compared to animals treated with a prophylactic protocol using standard methods known in the art (see, for example, Anton P. M. et al., Abstract ID No. 102471, Publishing ID No. T1741, presented at the American Gastroenterological Association Meeting, May 17-22, 2003; Anton P. M. et al., Gastroenterology 124:A558, 2003).
Hamsters were infected with C. difficile, and at the time of infection, were also treated with vancomycin (50 mg/kg) or Rifalazil (2 mg/kg).

[1] = microgranulated formulation, systemic administration, relatively high doses (FIG. 1)

SMILES	survival of hamsters infected with C. difficile (Rifalazil 2 mg/kg)	relapses of CDAD in in vivo animal experiments [1]	treatment of CDAD in in vivo animal experiments [1]	survival of hamsters infected with C. difficile (vancomycin 50 mg/kg)
CO[C@H]1/C=C/O[C@@]2(C)Oc3c(C)c(O)c4c(=O)c(c5oc6cc(N7CCN(CC(C)C)CC7)cc(O)c6nc-5c4c3C2=O)NC(=O)/C(C)=C\C=C\[C@H](C)[C@H](O)[C@@H](C)[C@@H](O)[C@@H](C)[C@H](OC(C)=O)[C@@H]1C [Rifalazil, 3′-hydroxy-5′-(4-isobutyl-1-piperazinyl) benzoxazinorifamycin]	All animals treated with Rifalazil survived	no relapses were observed	effectively treated	–
CN[C@H](CC(C)C)C(=O)N[C@H]1C(=O)N[C@@H](CC(N)=O)C(=O)N[C@H]2C(=O)N[C@H]3C(=O)N[C@H](C(=O)N[C@H](C(=O)O)c4cc(O)cc(O)c4-c4cc3ccc4O)[C@H](O)c3ccc(c(Cl)c3)Oc3cc2cc(c3O[C@@H]2O[C@H](CO)[C@@H](O)[C@H](O)[C@H]2O[C@H]2C[C@](C)(N)[C@H](O)[C@H](C)O2)Oc2ccc(cc2Cl)[C@H]1O [vancomycin, reference compound]	–	–	–	eventually succumbed to the infection
